Here are results for four molecules from PubChem BioAssay (NCI).

Among the test systems are DU-145 prostate; M14 melanoma; SW-620 colon; OVCAR-5 ovarian; NCI-H460 lung; HCT-15 colon; HCT-116 colon; SK-OV-3 ovarian; A498 renal; 786-0 renal; HT29 colon; MOLT-4 leukemia; K-562 leukemia; MDA-MB-435; PC-3 prostate; UO-31 renal; HCC-2998 colon; UACC-62 melanoma; SN12C renal; MCF7 breast; IGROV1 ovarian; RPMI-8226 leukemia; SNB-75 CNS; CCRF-CEM leukemia; KM12 colon; EKVX NSCLC; SR leukemia.

Holding throughout (assay): NCI-60 cell line screen, 48 h

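Five concentrations, 48 hours, 96-well plates. The concentration for 50% growth inhibition is given as GI50. Definition used: TGI = concentration required for complete inhibition of growth.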

Regarding `N=C(N)c1ccc(-c2ccc(-c3ccccc3)s2)cc1F`, in the test on DU-145 prostate, the GI50 was 1.13 µM and the TGI amounted to 2.38 µM.

`CN(C)[C@@H]1C(=O)C(C(N)=O)=C(O)[C@@]2(O)C(=O)C3=C(O)c4c(O)cc(CN5CCc6ccccc6C5)c(Cl)c4C[C@H]3C[C@@H]12`: the GI50 with M14 melanoma is 1.61 µM; in the test with SW-620 colon it was 1.92 µM; in the test on OVCAR-5 ovarian, 1.62 µM; with NCI-H460 lung it was 1.79 µM; in the test on HCT-15 colon, 0.0531 µM; with HCT-116 colon, 1.6 µM. Also, the GI50 with SK-OV-3 ovarian is 1.73 µM; with DU-145 prostate, 1.64 µM; in the test with A498 renal, 1.76 µM; in the test on 786-0 renal it was 1.76 µM. The TGI in the test with M14 melanoma turned out to be 3.03 µM; with SW-620 colon it was 3.6 µM; in the test with OVCAR-5 ovarian it was 3.02 µM; in the test on NCI-H460 lung, 3.4 µM; in the test on HCT-15 colon, 2.36 µM; with HCT-116 colon, 2.97 µM. Further, the TGI with SK-OV-3 ovarian came to 3.18 µM; in the test on DU-145 prostate, 3.04 µM; in the test with A498 renal, 3.29 µM; in the test on 786-0 renal, 3.3 µM.

Consider `OC(c1ccc(Cl)cc1)(c1ccc(Cl)cc1)C(O)(c1ccc(Cl)cc1)c1ccc(Cl)cc1`, for which the GI50 in the test on HT29 colon is 1.72 µM; with M14 melanoma, 3.23 µM; in the test with SW-620 colon it was 3.24 µM; with MOLT-4 leukemia, 3.18 µM; with K-562 leukemia, 3.56 µM; in the test with MDA-MB-435, 2.94 µM. Besides, the GI50 with NCI-H460 lung is 3.11 µM; in the test on PC-3 prostate, 3.25 µM; with UO-31 renal, 2.89 µM; in the test with HCT-15 colon, 2.93 µM; in the test with HCC-2998 colon, 2.56 µM; in the test on UACC-62 melanoma, 2.41 µM. Also, the GI50 in the test with SN12C renal was 3.06 µM; in the test with MCF7 breast, 3.27 µM; in the test on HCT-116 colon, 2.02 µM; in the test with IGROV1 ovarian it was 1.97 µM; with RPMI-8226 leukemia, 3.27 µM; in the test with SNB-75 CNS, 4.36 µM. Besides, the GI50 in the test on CCRF-CEM leukemia is 3.41 µM; in the test with KM12 colon, 4.12 µM; with EKVX NSCLC it was 3.14 µM. The TGI in the test on HT29 colon, with M14 melanoma, with SW-620 colon, in the test on MOLT-4 leukemia, in the test with K-562 leukemia and in the test with MDA-MB-435 was > 100 µM in each case. Further, the TGI with NCI-H460 lung, in the test with PC-3 prostate, in the test with UO-31 renal, with HCT-15 colon, with HCC-2998 colon and in the test with UACC-62 melanoma was > 100 µM throughout. Also, the TGI in the test with SN12C renal, with MCF7 breast, with HCT-116 colon, in the test on IGROV1 ovarian, in the test on RPMI-8226 leukemia and in the test on SNB-75 CNS was > 100 µM in each case. Further, the TGI with CCRF-CEM leukemia, in the test on KM12 colon and in the test on EKVX NSCLC was > 100 µM in each case.

With `N=C(N)c1ccc(-c2ccc(-c3ccc(F)cc3)s2)cc1`, the GI50 with SR leukemia is 0.307 µM; in the test on DU-145 prostate, 1.63 µM. For the same molecule, the TGI is > 100 µM in the test with SR leukemia and 2.98 µM in the test on DU-145 prostate.
